Molecular target: T1, CblC (Homo sapiens, UniProt Q9Y4U1)
T1 sequence (Q9Y4U1 1-282): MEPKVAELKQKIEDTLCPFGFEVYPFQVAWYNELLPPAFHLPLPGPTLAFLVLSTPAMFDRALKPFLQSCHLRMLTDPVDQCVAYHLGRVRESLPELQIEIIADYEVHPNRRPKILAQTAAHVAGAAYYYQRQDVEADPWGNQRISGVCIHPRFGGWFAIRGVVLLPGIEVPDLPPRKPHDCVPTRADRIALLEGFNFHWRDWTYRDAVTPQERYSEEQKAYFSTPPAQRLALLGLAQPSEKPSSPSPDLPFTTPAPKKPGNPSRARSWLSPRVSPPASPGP
Test: isothermal titration calorimetry
Conditions: in the presence of glutathione (GSH); base-off binding

Kd: 30 nM
Substance: PhEtyCbl [compound 2]

From publication PMC5681751 (Angewandte Chemie (International ed. in English), 2017)
